Measured values from article PMC3905694, “Targeting Low-Druggability Bromodomains: Fragment Based Screening and Inhibitor Design against the BAZ2B Bromodomain” (Journal of Medicinal Chemistry, 2013).

How the values were obtained:
CREBBP = biological target: T1, CREBBP (Homo sapiens, UniProt Q92793); assay: AlphaScreen fragment screen; assay type: binding; settings: fragment library screen
T1 construct: screened against the bromodomains of BRD2-BD1 and CREBBP

BRD2-BD1 = biological target: T2, BRD2-BD1 (Homo sapiens, UniProt P25440); assay: AlphaScreen fragment screen; assay type: binding; settings: fragment library screen
T2 construct: screened against the bromodomains of BRD2-BD1 and CREBBP
T2 sequence (P25440 74-180 limits assumed): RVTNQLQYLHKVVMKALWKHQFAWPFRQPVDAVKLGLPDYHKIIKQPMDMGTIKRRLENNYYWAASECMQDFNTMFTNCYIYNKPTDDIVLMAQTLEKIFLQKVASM

[1] = Solubility (qualitative remarks); assay type: physicochemical; settings: in words
BAZ2B bromodomain [2] = biological target: T3, BAZ2B bromodomain (Homo sapiens, UniProt Q9UIF8); assay: Direct ITC titrations; assay type: binding; parameters: successful targeting of the challenging BAZ2B bromodomain; made in house; host or cells: E. coli BL21(DE3); settings: in words
T3 sequence (Q9UIF8 2060-2164 limits assumed): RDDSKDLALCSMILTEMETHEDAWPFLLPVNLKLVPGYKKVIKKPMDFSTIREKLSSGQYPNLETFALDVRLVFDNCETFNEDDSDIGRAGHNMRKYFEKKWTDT

BAZ2B bromodomain [3] = biological target: T3, BAZ2B bromodomain; assay: AlphaLISA competitive peptide displacement (antipentahis acceptor beads); settings: in words

T1 sequence (Q92793 1085-1192 limits assumed): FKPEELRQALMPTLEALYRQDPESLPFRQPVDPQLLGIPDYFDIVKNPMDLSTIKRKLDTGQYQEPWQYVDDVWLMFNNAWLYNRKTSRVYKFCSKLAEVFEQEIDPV

| hit in fragment screen (CREBBP) | hit in fragment screen (BRD2-BD1) | solubility [1] | other results | SMILES |
| --- | --- | --- | --- | --- |
| hits | hits | – | – | CNC(=O)c1cc(C)n(C)n1 [Compound 5] |
| hits | hits | poor solubility | – | CC(=O)N1CCc2[nH]c3ccc(Cl)cc3c2C1 [Compound 6] |
| – | – | – | binding to the protein (BAZ2B bromodomain [2]): Neither of these bound | CC(=S)N1CCc2[nH]c3ccc(Cl)cc3c2C1 [Compound 38] |
| – | – | – | binding to the protein (BAZ2B bromodomain [3]): Neither of these bound | NC(=S)N1CCc2[nH]c3ccc(Cl)cc3c2C1 [Compound 39] |
| – | – | improved solubility | – | CNC(=O)N1CCc2[nH]c3ccc(Cl)cc3c2C1 [Compound 40] |
